Data published in patent publication US20200016125A1, “GRANZYME B INHIBITOR COMPOSITIONS AND METHODS FOR THE PREVENTION AND/OR TREATMENT OF SKIN BLISTERING AND/OR PEELING” (The University of British Columbia, priority 2017, published 2020).

Legend:
[1] = biological target: T1, GzmB (Homo sapiens, UniProt P10144); assay: GzmB-mediated cleavage of nidogen-2 with inhibitor (Western Blot); type: biochemical; conditions: FIG. 22B; nidogen-2 residues 31-1375, 500 ng, 200 nM purified human GzmB, 100 μM Compound A
T1 construct: purchased EmeraldBio
T1 sequence (P10144 21-247): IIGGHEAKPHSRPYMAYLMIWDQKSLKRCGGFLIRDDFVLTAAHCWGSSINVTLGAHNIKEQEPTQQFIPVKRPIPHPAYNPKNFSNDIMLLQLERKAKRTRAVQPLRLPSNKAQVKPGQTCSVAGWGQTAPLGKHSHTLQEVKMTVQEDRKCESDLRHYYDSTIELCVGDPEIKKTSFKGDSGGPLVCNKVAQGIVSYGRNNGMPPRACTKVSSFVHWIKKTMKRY
Description: (§1) For inhibition studies, prior to the addition of substrates to the reaction, GzmB was incubated in the presence of 100 μM Compound A for 1 hour at 37° C. After 24 hours incubation, proteins were denatured, separated on a 4%-20% SDS-PAGE gel (for α6/β4). […] For inhibition studies, prior to the addition of substrates to the reaction, GzmB was incubated in the presence of 100 μM Compound A for 1 hour at 37° C. After 24 hours incubation, nidogen-2 protein was denatured and separated on a 7.5% SDS-PAGE gel. Cleavage was detected by anti-nidogen-2 antibody (R&D Systems). […] For inhibition studies, prior to the addition of substrates to the reaction, GzmB was incubated in the presence of 100 μM Compound A for 1 hour at 37° C. After 24 hours incubation, collagen VII protein was denatured and separated on a 10% SDS-PAGE gel. Cleavage was detected by anti-collagen VII antibody (ABCAM, Toronto, ON).

[2] = biological target: T1, GzmB; assay: GzmB cleavage assay of collagen VII with GzmB inhibitors (Western Blot); type: biochemical; conditions: for inhibition of GzmB-mediated collagen VII cleavage: FIG. 3, collagen VII 500 ng, 200 mM of GzmB, 24 hours 37° C., GzmB incubated with inhibitor 1 hour before substrate
Description: (§2) Addition of GzmB inhibitors (Serpin A3N, Compound 20, Compound A) prevented GzmB-mediated collagen VII cleavage. Bands indicating fragments are labeled. GzmB cleavage assay was performed in 40 μL of PBS. Briefly, collagen VII (500 ng) was incubated with […] of GzmB for 24 hours at 37° C. For inhibition, GzmB was incubated with Compound 20, Serpin A3N and Compound A for 1 hour at 37° C. prior to the addition of collagen VII. After 24 hours, all samples were loaded onto a 10% SDS-PAGE, blotted on a PVDF membrane and incubated with a primary antibody specific for collagen VII (rabbit anti-collagen VII, Abcam plc) overnight at 4° C., and then with a secondary labeled anti-rabbit antibody for 1 hour at room temperature.
as §1
as §2, with “A” for “Addition of GzmB inhibitors (Serpin A3N, Compound 20, Compound A) prevented GzmB-mediated collagen VII cleavage. Bands indicating fragments are labeled.”, “hours” for “hours,”, “on” for “on a”
(§3) The recombinant human integrin α6/β4 (α6 a.a. 24-878, β4 a.a. 28-710, R&D Systems, Minneapolis, Minn.), collagen VII (199-482 a.a., MyBiosource, San Diego, Calif.), collagen XVII (a.a. 490-1497, generous gift from Dr. Claus-Werner Franzke), and collagen I (Novus Biologicals, Littleton, Colo.) were incubated for 24 hours at 37° C. in 200 nM purified human GzmB (EmeraldBio, Bainbridge Island, Wash.). For inhibition studies, prior to the addition of substrates to the reaction, GzmB was incubated in the presence of 600 nm serpin A3N (generous gift from Dr. Chris R. Bleackley, University of Alberta, Edmonton, AB, Canada) or 100 NM of the small molecule inhibitor Compound 20 (courtesy of the Centre for Drug Research and Development, Vancouver, BC) for 1 hour at 37° C. After the 24 hours incubation, proteins were denatured, separated on a 4-20% (for integrin α6/β4), 10% (for collagen VII), 8-10% (for collagen XVII), or 7.5% (for collagen I) SDS-polyacrylamide gel. Cleavage was detected by Western Blot using anti-human integrin α6 sub-unit (ABCAM), anti-human integrin β4 sub-unit (R&D Systems, Minneapolis, Minn.), anti collagen VII (ABCAM), and anti-human collagen XVII (generous gift from Dr. Claus-Werner Franzke) and imaged using a Li-Cor Odissey® FC (Li-Cor, Lincoln, Nebr.). […]

[3] = biological target: T1, GzmB; assay: GzmB cleavage assay of integrin α6/β4 (α6 and β4 sub-units) with GzmB inhibitors; type: biochemical
Description: as §1
as §3, with “After the 24 hours incubation, proteins were denatured, separated on a 4-20% (for integrin α6/β4), 10% (for collagen VII), 8-10% (for collagen XVII), or 7.5% (for collagen I) SDS-polyacrylamide gel.” left out

[4] = tested on: diabetic mouse model, burn injury to induce blistering; assay: Burn injury blistering in diabetic mouse model; type: in vivo; conditions: for blistering compared to saline-only treatment: FIG. 8B, 30-day study
Description: FIGS. 8A through 8C provide evidence Compound A, a GzmB inhibitor, prevents blistering. Mice were exposed to burn injury by heating a steal rod for 6 seconds to 100° C. to induce blistering. Two independent experiments were run: In FIG. 8A, Compound A was added daily for 30 days. […] In FIG. 8B, Compound A in PBS (3.6 mg/mL) was administered daily by subcutaneous injection and in a gel (3.6 mg/mL) administered daily by topical application.
In this example mice were exposed to burn injury by heating a steal rod for 6 seconds to 100° C. to induce blistering.
There were two separate experiments run. Experiment 1 was a 30-day 3-arm study. Arm 1 consisted of treating the mouse daily with Compound A (3.6 mg/mL) in PBS by subcutaneous injection. In arm 2, Compound A (3.6 mg/mL) was administered to the mouse by daily topical application in the gel. In arm 3, the mouse was administered daily by subcutaneous injection saline as a control.
Experiment 2 was a 25-day 2-arm study. Arm 1 consisted of administering daily, through topical application, Compound A (3.6 mg/mL) in the gel. Arm 2 consisted of administering daily the vehicle gel through topical application as a control.

[5] = biological target: T1, GzmB; assay: GzmB-mediated cleavage of collagen XVII with inhibitors (Western Blot); type: biochemical; conditions: FIG. 16A, collagen XVII a.a. 490-1497, 200 nM GzmB, pre-incubation with Compound 20 or serpin A3N
Description: Black arrow indicates cleavage fragment and * indicates full-length protein. GzmB produces a cleavage band, and this cleavage is abolished by the addition of Com20 or S3AN. […] Dotted lines indicate separation between the epidermis and the dermis. Scale bars represent […].
as §3, with “After the 24 hours incubation, proteins were denatured, separated on a 4-20% (for integrin α6/β4), 10% (for collagen VII), 8-10% (for collagen XVII), or 7.5% (for collagen I) SDS-polyacrylamide gel.” left out

CC[C@H](C)[C@H](NC(=O)CCC(=O)O)C(=O)NCC(=O)N1C(=O)N(C2CCCCC2)C[C@H]1C(=O)NCc1nn[nH]n1 [Compound A, 4-(((2S,3S)-1-((2-((S)-5-(((2H-tetrazol-5-yl)methyl)carbamoyl)-3-cyclohexyl-2-oxoimidazolidin-1-yl)-2-oxoethyl)amino)-3-methyl-1-oxopentan-2-yl)amino)-4-oxobutanoic acid]
inhibition of GzmB-mediated cleavage of nidogen-2 [1]: this cleavage was prevented | inhibition of GzmB-mediated collagen VII cleavage [2]: prevented | inhibition of GzmB-mediated cleavage of collagen VII ([2]; FIG. 22C, collagen VII residues 199-482, 500 ng, 200 nM purified human GzmB, 100 μM Compound A pre-incubated 1 hour): this cleavage is prevented | inhibition of GzmB-mediated cleavage of α6β4 integrin ([3]; FIG. 22A, Coomassie staining, 200 nM purified human GzmB, 100 μM Compound A pre-incubated 1 hour): can prevent the cleavage | blistering ([4]; FIG. 8A, mice, burn injury, Compound A daily for 30 days versus saline-treated skin): Blistering is prevented | blistering compared to saline-only treatment ([4]; Compound A in PBS 3.6 mg/mL, daily subcutaneous injection): reduce blistering | blistering compared to saline-only treatment ([4]; Compound A in gel 3.6 mg/mL, daily topical application): reduce blistering | blistering compared to gel alone ([4]; FIG. 8C, Compound A in gel 3.6 mg/mL, daily topical application, 25-day study): reduced blistering

B1: Serpin A3N: an irreversible serine protease inhibitor used as GzmB inhibitor (protein, UniProt Q91WP6 21-418, looked up)
Serine protease inhibitor A3N: FPDGTLGMDAAVQEDHDNGTQLDSLTLASINTDFAFSLYKELVLKNPDKNIVFSPLSISAALAVMSLGAKGNTLEEILEGLKFNLTETSEADIHQGFGHLLQRLNQPKDQVQISTGSALFIEKRQQILTEFQEKAKTLYQAEAFTADFQQPRQAKKLINDYVRKQTQGMIKELVSDLDKRTLMVLVNYIYFKAKWKVPFDPLDTFKSEFYAGKRRPVIVPMMSMEDLTTPYFRDEELSCTVVELKYTGNASALFILPDQGRMQQVEASLQPETLRKWKNSLKPRMIDELHLPKFSISTDYSLEDVLSKLGIREVFSTQADLSAITGTKDLRVSQVVHKAVLDVAETGTEAAAATGVKFVPMSAKLYPLTVYFNRPFLIMIFDTETEIAPFIAKIANPK
inhibition of GzmB-mediated cleavage of collagen XVII (NC16 ectodomain) [5]: prevented NC16 cleavage | inhibition of GzmB-mediated cleavage of collagen XVII (NC16 ectodomain) ([5]; listed as S3AN): abolished | inhibition of GzmB-mediated collagen VII cleavage [2]: prevented | inhibition of GzmB-mediated cleavage of collagen VII ([2]; FIG. 15A, collagen VII a.a. 199-482, 200 nM purified human GzmB, 24 hours, pre-incubation with 600 nm serpin A3N or 100 NM Compound 20): prevented the appearance of both ˜20 and 25 kDa bands | inhibition of GzmB-mediated cleavage of collagen VII ([2]; FIG. 15A, collagen VII a.a. 199-482, 200 nM purified human GzmB, 24 hours, pre-incubation with 600 nm serpin A3N or 100 NM Compound 20, listed as S3AN): abolished | inhibition of GzmB-mediated cleavage of the α6 integrin subunit ([3]; FIG. 13A, 200 nM GzmB, Western Blot, Compound 20 100 μM, serpin A3N 600 nM): prevented the cleavage | inhibition of GzmB-mediated cleavage of β4 integrin sub-unit ([3]; FIG. 14A, 200 nM GzmB, Western Blot, Compound 20 100 μM, serpin A3N 600 nM): prevented the cleavage
